Test results: patent publication EP0637588A1, “ACTIVE OXYGEN INHIBITOR COMPOSITION” (SHISEIDO COMPANY LIMITED, priority 1993, dated 1994)

Test system: polymorphonuclear leukocyte (PMNs)
Test: Suppressing action on production of active oxygen from neutrophils (OPZ-stimulated, FCLA dependent chemiluminescence)
Format: cell-based, white Japanese rabbit
Settings: Oryctolagus cuniculus, PMNs stimulated by opsonized zymosan (OPZ), 37°C, read-out: Suppressing Action on Production of Active Oxygen (Suppressive Rate %)
Procedure: A 400 mL amount of physiological saline solution containing 0.2% glycogen was administered by drip into the abdominal cavity of a white Japanese rabbit having about 3 kg body weight without anesthesia. After 16 hours, 400 ml of sterilized physiological saline solution was administered, the cavity was massaged well, then the ascites was sampled. This was centrifuged at 100 × g to obtain a precipitate which was then suspended in a Hanks Balanced Salt Solution (HBSS) and adjusted to 5 x 10⁵ cells/mL. This was used as the polymorphonuclear leukocyte (PMNs) fraction. The action on the production of active oxygen by opsonized zymosan (OPZ) was studied as follows: To PMNs (480 µl) were added 3,7-dihydro-6-[4-[2-(N'-(5-fluoresceinyl)thioureid)ethoxy]phenyl]-2-methylimidazo[1,2-a]pyradine-3-on·sodium salt (FCLA) (2 µM) and various concentrations of test compounds. The resulting mixture was incubated at 37°C for 10 minutes, OPZ was added in an amount of 5 µL, and then the FCLA dependent chemiluminescence was measured using a photon counter (made by BertHold of Germany) under a constant temperature of 37°C along with the elapse of time.

## O=C1O[C@H]([C@@H](O)CO)C(O)=C1O [Ascorbic acid]
Concentration 0.1 µM
  inhibition at 0.1 µM: 20.1%
Concentration 1.0 µM
  inhibition at 1 µM: 51.7%
Concentration 10 µM
  inhibition at 10 µM: 86.8%
